One may read the Ki as the equilibrium dissociation constant of an inhibitor or competing ligand from its target.

The results in this text go back to US9873696B2, “Neprilysin inhibitors” (THERAVANCE BIOPHARMA R&D IP, LLC, priority 2010, dated 2018).

The target of the test is T1, human NEP (Homo sapiens, UniProt P08473).
T1 construct: purchased R&D Systems, Minneapolis, Minn; 1182-ZN
The test can be described thus: In vitro enzyme inhibition assay at human NEP (Assay 1). Type of test: biochemical. The settings on record: recombinant enzyme, fluorogenic peptide substrate, 37° C. The method, boiled down: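 Recombinant enzyme preincubated with compound 30 min at 37 °C, then 10 μM Mca-D-Arg-Arg-Leu-Dap-(Dnp)-OH added in 50 mM HEPES pH 7.5, 100 mM NaCl, 0.01% Tween-20, 10 μM ZnSO4; stopped after 20 min with acetic acid. Fluorescence read at 320/405 nm; Ki from nonlinear fit of v=v0/[1+(I/K′)], reported as pKi.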

Bounds are passed on as bounds.

T1 sequence (P08473 whole entry): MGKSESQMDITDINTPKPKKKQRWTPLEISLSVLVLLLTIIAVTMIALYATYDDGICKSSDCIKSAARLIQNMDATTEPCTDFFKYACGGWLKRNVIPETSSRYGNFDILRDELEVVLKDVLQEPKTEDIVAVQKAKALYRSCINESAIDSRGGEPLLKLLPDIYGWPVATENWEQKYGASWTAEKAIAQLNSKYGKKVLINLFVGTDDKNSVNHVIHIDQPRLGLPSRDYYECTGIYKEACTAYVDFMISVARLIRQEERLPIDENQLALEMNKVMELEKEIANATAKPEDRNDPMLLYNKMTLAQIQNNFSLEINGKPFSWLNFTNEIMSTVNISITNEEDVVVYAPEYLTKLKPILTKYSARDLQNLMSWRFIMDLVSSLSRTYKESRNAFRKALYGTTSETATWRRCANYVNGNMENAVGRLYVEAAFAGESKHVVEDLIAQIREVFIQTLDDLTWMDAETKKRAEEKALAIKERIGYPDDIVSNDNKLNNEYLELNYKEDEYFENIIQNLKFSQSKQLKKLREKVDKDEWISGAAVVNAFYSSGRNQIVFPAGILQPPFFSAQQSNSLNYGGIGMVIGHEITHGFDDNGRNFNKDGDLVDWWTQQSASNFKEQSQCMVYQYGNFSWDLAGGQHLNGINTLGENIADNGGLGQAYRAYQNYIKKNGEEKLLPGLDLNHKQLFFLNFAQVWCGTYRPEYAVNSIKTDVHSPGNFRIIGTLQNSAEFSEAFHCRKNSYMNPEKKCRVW

As to `O=C(NN(Cc1ccc(-c2cc(F)ccc2O)cc1)C[C@H](O)C(=O)O)c1cc(O)no1` [Example 8-5, (S)-3-[N-(5′-Fluoro-2′-hydroxy-biphenyl-4-ylmethyl)-N′-(3-hydroxy-isoxazole-5-carbonyl)-hydrazino]-2-hydroxy-propionic acid], the Ki is 1.26 to 10 nM.
Regarding `O=C(NN(Cc1ccc(-c2cc(Cl)ccc2O)cc1)C[C@H](O)C(=O)O)c1cc(O)no1` [Example 8-6, (S)-3-[N-(5′-Chloro-2′-hydroxy-biphenyl-4-ylmethyl)-N′-(3-hydroxy-isoxazole-5-carbonyl)-hydrazino]-2-hydroxy-propionic acid], the Ki was 1.26 to 10 nM.
For `O=C(NN(Cc1ccc(-c2cccc(Cl)c2O)cc1)C[C@@H](O)C(=O)O)c1cc(O)no1` [Example 8-7, (R)-3-[N-(3′-Chloro-2′-hydroxy-biphenyl-4-ylmethyl)-N′-(3-hydroxy-isoxazole-5-carbonyl)-hydrazino]-2-hydroxy-propionic acid], the Ki was 1.26 to 10 nM.
For `O=C(NN(Cc1ccc(-c2cc(Cl)ccc2F)cc1)C[C@@H](O)C(=O)O)c1cc(O)no1` [Example 8-8, (R)-3-[N-(5′-Chloro-2′-fluoro-biphenyl-4-ylmethyl)-N′-(3-hydroxy-isoxazole-5-carbonyl)-hydrazino]-2-hydroxy-propionic acid], the inhibition constant Ki is no more than 1 nM.
`COc1cc(C(=O)NN(Cc2ccc(-c3cc(Cl)ccc3F)cc2)C[C@@H](O)C(=O)O)on1` [Example 8-9, (R)-3-[N-(5′-Chloro-2′-fluoro-biphenyl-4-ylmethyl)-N′-(3-methoxy-isoxazole-5-carbonyl)-hydrazino]-2-hydroxy-propionic acid]: the inhibition constant (Ki) was no more than 1 nM.
`O=C(NN(Cc1ccc(-c2cc(Cl)ccc2F)cc1)C[C@@H](O)C(=O)O)c1cc(-c2cccc(F)c2)no1` [Example 8-13, (R)-3-{N-(5′-Chloro-2′-fluoro-biphenyl-4-ylmethyl)-N′-[3-(3-fluoro-phenyl)-isoxazole-5-carbonyl]-hydrazino}-2-hydroxy-propionic acid]: the Ki was no more than 1 nM.
Turning to `CCc1cc(C(=O)NN(Cc2ccc(-c3cc(Cl)ccc3F)cc2)C[C@@H](O)C(=O)O)on1` [Example 8-14, (R)-3-[N-(5′-Chloro-2′-fluoro-biphenyl-4-ylmethyl)-N′-(3-ethyl-isoxazole-5-carbonyl)-hydrazino]-2-hydroxy-propionic acid], the Ki is no more than 1 nM.
Then `COc1ccccc1-c1cc(C(=O)NN(Cc2ccc(-c3cc(Cl)ccc3F)cc2)C[C@@H](O)C(=O)O)on1` [Example 8-15, (R)-3-{N-(5′-Chloro-2′-fluoro-biphenyl-4-ylmethyl)-N′-[3-(2-methoxy-phenyl)-isoxazole-5-carbonyl]-hydrazino}-2-hydroxy-propionic acid], with no more than 1 nM; and `O=C(NN(Cc1ccc(-c2cc(Cl)ccc2F)cc1)C[C@@H](O)C(=O)O)c1cc(-c2cccc(Cl)c2)no1` [Example 8-16, (R)-3-{N-(5′-Chloro-2′-fluoro-biphenyl-4-ylmethyl)-N′-[3-(3-chloro-phenyl)-isoxazole-5-carbonyl]-hydrazino}-2-hydroxy-propionic acid], with no more than 1 nM; and `O=C(NN(Cc1ccc(-c2cc(Cl)ccc2F)cc1)C[C@@H](O)C(=O)O)c1cc(-c2ccccc2Cl)no1` [Example 8-17, (R)-3-{N-(5′-Chloro-2′-fluoro-biphenyl-4-ylmethyl)-N′-[3-(2-chloro-phenyl)-isoxazole-5-carbonyl]-hydrazino}-2-hydroxy-propionic acid], with no more than 1 nM.
As for `O=C(NN(Cc1ccc(-c2cc(Cl)ccc2F)cc1)C[C@@H](O)C(=O)O)c1cc(-c2ccccc2F)no1` [Example 8-18, (R)-3-{N-(5′-Chloro-2′-fluoro-biphenyl-4-ylmethyl)-N′-[3-(2-fluoro-phenyl)-isoxazole-5-carbonyl]-hydrazino}-2-hydroxy-propionic acid], the Ki was no more than 1 nM.
For the molecule `O=C(NN(Cc1ccc(-c2cccc(Cl)c2F)cc1)C[C@@H](O)C(=O)O)c1cc(O)no1` [Example 8-21, (R)-3-[N-(3′-Chloro-2′-fluoro-biphenyl-4-ylmethyl)-N′-(3-hydroxy-isoxazole-5-carbonyl)-hydrazino]-2-hydroxy-propionic acid], the Ki is 1.26 to 10 nM.
For `O=C(NN(Cc1ccc(-c2cc(Cl)ccc2Cl)cc1)C[C@H](O)C(=O)O)c1cc(O)no1` [Example 8-22, (S)-3-[N-(2′,5′-Dichloro-biphenyl-4-ylmethyl)-N′-(3-hydroxy-isoxazole-5-carbonyl)-hydrazino]-2-hydroxy-propionic acid], the Ki was no more than 1 nM.
`Cc1cc(Cl)cc(-c2ccc(CN(C[C@H](O)C(=O)O)NC(=O)c3cc(O)no3)cc2)c1F` [Example 8-23, (S)-3-[N-(5′-Chloro-2′-fluoro-3′-methyl-biphenyl-4-ylmethyl)-N′-(3-hydroxy-isoxazole-5-carbonyl)-hydrazino]-2-hydroxy-propionic acid]: the Ki is 1.26 to 10 nM.
In the case of `O=C(NN(Cc1ccc(-c2cc(F)cc(Cl)c2)cc1)C[C@H](O)C(=O)O)c1cc(O)no1` [Example 8-24, (S)-3-[N-(5′-Chloro-3′-fluoro-biphenyl-4-ylmethyl)-N′-(3-hydroxy-isoxazole-5-carbonyl)-hydrazino]-2-hydroxy-propionic acid], the Ki was 1.26 to 10 nM.
Turning to `O=C(NN(Cc1ccc(-c2cc(Cl)cc(Cl)c2)cc1)C[C@@H](O)C(=O)O)c1cc(O)no1` [Example 8-25, (R)-3-[N-(3′,5′-Dichloro-biphenyl-4-ylmethyl)-N′-(3-hydroxy-isoxazole-5-carbonyl)-hydrazino]-2-hydroxy-propionic acid], the Ki is no more than 1 nM.
Regarding `O=C(NN(Cc1ccc(-c2cc(F)cc(F)c2)cc1)C[C@H](O)C(=O)O)c1cc(O)no1` [Example 8-26, (S)-3-[N-(3′,5′-Difluoro-biphenyl-4-ylmethyl)-N′-(3-hydroxy-isoxazole-5-carbonyl)-hydrazino]-2-hydroxy-propionic acid], the inhibition constant (Ki) was 12.6 to 100 nM.
For the molecule `O=C(NN(Cc1ccc(-c2cc(O)cc(Cl)c2)cc1)C[C@H](O)C(=O)O)c1cc(O)no1` [Example 8-27, (S)-3-[N-(5′-Chloro-3′-hydroxy-biphenyl-4-ylmethyl)-N′-(3-hydroxy-isoxazole-5-carbonyl)-hydrazino]-2-hydroxy-propionic acid], the Ki is no more than 1 nM.
Consider `Cc1c(Cl)cc(Cl)cc1-c1ccc(CN(C[C@H](O)C(=O)O)NC(=O)c2cc(O)no2)cc1` [Example 8-28, (S)-3-[N-(3′,5′-Dichloro-2′-methyl-biphenyl-4-ylmethyl)-N′-(3-hydroxy-isoxazole-5-carbonyl)-hydrazino]-2-hydroxy-propionic acid], for which the Ki was 12.6 to 100 nM.
With `O=C(NN(Cc1ccc(-c2cc(Cl)ccc2F)cc1)C[C@@H](O)C(=O)O)c1cc(Cl)no1` [Example 8-29, (R)-3-[N-(5′-Chloro-2′-fluoro-biphenyl-4-ylmethyl)-N′-(3-chloro-isoxazole-5-carbonyl)-hydrazino]-2-hydroxy-propionic acid], the Ki is 1.26 to 10 nM.
With `CC(C)Cc1cc(C(=O)NN(Cc2ccc(-c3cc(Cl)ccc3F)cc2)C[C@@H](O)C(=O)O)on1` [Example 8-30, (R)-3-[N-(5′-Chloro-2′-fluoro-biphenyl-4-ylmethyl)-N′-(3-isobutyl-isoxazole-5-carbonyl)-hydrazino]-2-hydroxy-propionic acid], the Ki is no more than 1 nM.
With `CCCc1cc(C(=O)NN(Cc2ccc(-c3cc(Cl)ccc3F)cc2)C[C@@H](O)C(=O)O)on1` [Example 8-31, (R)-3-[N-(5′-Chloro-2′-fluoro-biphenyl-4-ylmethyl)-N′-(3-propyl-isoxazole-5-carbonyl)-hydrazino]-2-hydroxy-propionic acid], the inhibitory constant (Ki) is no more than 1 nM.
Consider `CC(C)c1cc(C(=O)NN(Cc2ccc(-c3cc(Cl)ccc3F)cc2)C[C@@H](O)C(=O)O)on1` [Example 8-32, (R)-3-[N-(5′-Chloro-2′-fluoro-biphenyl-4-ylmethyl)-N′-(3-isopropyl-isoxazole-5-carbonyl)-hydrazino]-2-hydroxy-propionic acid], for which the Ki was no more than 1 nM.
Consider `CC(C)(C)c1cc(C(=O)NN(Cc2ccc(-c3cc(Cl)ccc3F)cc2)C[C@@H](O)C(=O)O)on1` [Example 8-33, (R)-3-[N′-(3-tert-Butyl-isoxazole-5-carbonyl)-N-(5′-chloro-2′-fluoro-biphenyl-4-ylmethyl)-hydrazino]-2-hydroxy-propionic acid], for which the Ki is 1.26 to 10 nM.
Turning to `O=C(NN(Cc1ccc(-c2cc(Cl)ccc2F)cc1)C[C@@H](O)C(=O)O)c1cc(-c2cccnc2)on1` [Example 8-34, (R)-3-[N-(5′-Chloro-2′-fluoro-biphenyl-4-ylmethyl)-N′-(5-pyridin-3-yl-isoxazole-3-carbonyl)-hydrazino]-2-hydroxy-propionic acid], the Ki is 1.26 to 10 nM.
As to `CN(C)C(=O)c1cc(C(=O)NN(Cc2ccc(-c3cc(Cl)ccc3F)cc2)C[C@@H](O)C(=O)O)[nH]n1` [Example 8-35, (R)-3-[N-(5′-Chloro-2′-fluoro-biphenyl-4-ylmethyl)-N′-(5-dimethylcarbamoyl-2H-pyrazole-3-carbonyl)-hydrazino]-2-hydroxy-propionic acid], the Ki was no more than 1 nM.
Then `O=C(NN(Cc1ccc(-c2cc(Cl)ccc2F)cc1)C[C@@H](O)C(=O)O)c1cc(-c2ccccn2)n[nH]1` [Example 8-36, (R)-3-[N-(5′-Chloro-2′-fluoro-biphenyl-4-ylmethyl)-N′-(5-pyridin-2-yl-2H-pyrazole-3-carbonyl)-hydrazino]-2-hydroxy-propionic acid], with no more than 1 nM; and `O=C(NN(Cc1ccc(-c2cc(Cl)ccc2F)cc1)C[C@@H](O)C(=O)O)c1cc(-c2ccccc2O)n[nH]1` [Example 8-38, (R)-3-{N-(5′-Chloro-2′-fluoro-biphenyl-4-ylmethyl)-N′-[5-(2-hydroxy-phenyl)-2H-pyrazole-3-carbonyl]-hydrazino}-2-hydroxy-propionic acid], with no more than 1 nM.
